The record followed here is US8343475B2, “Small cationic antimicrobial peptides” (priority 2006, dated 2013).

For assay [1], the system named is Pseudomonas aeruginosa PAO1 strain H103. The class given is cell-based. The conditions noted are these: laboratory strain P. aeruginosa PAO1. An outline of the steps: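 Modified broth microdilution MIC in Mueller Hinton medium, peptides diluted in 0.01% acetic acid/0.2% BSA, polypropylene plates. Inoculum 2-7×10^5 CFU/ml, overnight at 37 °C; MIC is the lowest concentration with no visible growth.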

Assay [2] has as its system Enterococcus faecalis ATCC29212. It is filed as cell-based. Conditions: ATCC29212. Summed up: (§1)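 Modified microdilution, MH broth, polypropylene wells. Peptide dilutions (10× stocks in 0.01% HOAc/0.2% BSA) mixed 1:10 with medium; cells 2-7×10^5 CFU/ml; 37° C overnight; endpoint no growth.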
In assay [3] the test system is Staphylococcus aureus ATCC25923. The class given is cell-based. Conditions: ATCC25923. Summed up:
as §1

Assay [4] relates to clinical isolates of MRSA. It is filed as cell-based, Staphylococcus aureus. An outline of the steps:
(§2)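 Modified broth microdilution in Mueller Hinton medium, peptides serially diluted in 0.01% acetic acid with 0.2% BSA in polypropylene plates. Inoculum 2-7×10^5 CFU/ml, overnight incubation at 37° C; MIC taken as lowest concentration with no visible growth.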

The subject of a further assay is ESBL E. cloacae. It is filed as cell-based, Enterobacter cloacae. An outline of the steps:
as §2

The test system of assay [5] is Liverpool Epidemic Strains. The class given is cell-based, Pseudomonas aeruginosa. An outline of the steps: as §2
The test system of assay [6] is multidrug resistant Brazilian clinical isolates of P. aeruginosa. It is filed as cell-based, Pseudomonas aeruginosa. An outline of the steps:
as §2

The test system of assay [7] is MCP-1 release by human PBMC. The assay is described as follows: Chemokine induction in PBMC (capture ELISA). It is filed as cell-based. The conditions noted are these: background (204) subtracted. An outline of the steps: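 Heparinized blood from healthy volunteers; Ficoll-isolated human PBMC (7.5×10^5) treated with peptides at 20 or 100 μg/ml for 24 hours at 37° C, 5% CO2. Cell-free supernatants assayed for MCP-1 by capture ELISA.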

Assay [8] has as its system MCP-3 release by human PBMC. The assay is described as follows: Chemokine induction in PBMC (capture ELISA). It is filed as cell-based. Conditions: background (6) subtracted. An outline of the steps: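 Human PBMC from healthy donors (Ficoll-isolated), 7.5×10^5 cells at 0.75–1×10^6 cells/ml, treated with peptides at 20 or 100 μg/ml for 24 h at 37° C, 5% CO2. MCP-3 in cell-free supernatants measured by capture ELISA.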

In assay [9] the test system is CXCL1 (Gro-α) release by human PBMC. Description: Chemokine induction in PBMC (capture ELISA). The conditions noted are these: background (196) subtracted. It is filed as cell-based. Summed up: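 Human PBMC from healthy donors' heparinised blood (Ficoll), 7.5×10^5 cells treated with 20 or 100 μg/ml peptide for 24 h at 37° C, 5% CO2. Cell-free supernatants assayed for CXCL1 by capture ELISA.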

For assay [10], the system named is ESBL E. coli clinical strain 64771. The class given is cell-based. Conditions: ESBL clinical strain 64771. An outline of the steps: (§3)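 Broth microdilution in Mueller Hinton medium, peptides serially diluted in 0.01% acetic acid with 0.2% BSA in polypropylene plates. Inoculum 2-7×10^5 CFU/ml, incubated overnight at 37° C. MIC is the lowest concentration with no visible growth.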

Assay [11] concerns ESBL Klebsiella pneumonia clinical strain 63575. The class given is cell-based. Summed up:
as §3

The test system of assay [12] is VRE Vancomycin resistant Enterococcus faecalis clinical isolates. The class given is cell-based. An outline of the steps: as §3
Assay [13] deals with VRE Vancomycin resistant Enterococcus faecium clinical isolates. It is filed as cell-based. An outline of the steps: as §3
Assay [14] relates to multidrug resistant Pseudomonas maltophilia ATCC13637. The class given is cell-based. An outline of the steps: as §3

Each structure is given as a SMILES string. Residues, ends and D or L forms follow the SMILES beside them.

Take `CC[C@H](C)[C@H](NC(=O)[C@H](CCCNC(=N)N)NC(=O)[C@@H](N)CCCCN)C(=O)N[C@@H](CCSC)C(=O)N[C@@H](CCCCN)C(=O)N[C@@H](CC(C)C)C(=O)N[C@@H](CCCCN)C(=O)N[C@@H](CCSC)C(=O)N[C@@H](CCCNC(=N)N)C(N)=O` [HHC133, KRIMKLKMR] (H-KRIMKLKMR-NH2; N-terminus assumed): in assay [1], the “antimicrobial activity against P. aeruginosa PAO1 (in words)” value is recorded as “did not return any generally active substances”. In addition, the MIC (in assay [2]; in assay [3]; in [4]; in the assay with ESBL E. cloacae; in assay [5]; in [6]) was more than 226 µM in each case. Moreover, the MIC in assay [10], in [11], in assay [12], in [13] and in assay [14] was more than 226 µM throughout. Also, the “Chemokine induction MCP-1” value in assay [7] (20 μg/ml peptide) is 195 pg/mL; in assay [7] (100 μg/ml peptide), 444 pg/mL. Moreover, the “Chemokine induction MCP-3” value was found to be 0 pg/mL in [8] (20 μg/ml peptide) and 2 pg/mL in assay [8] (100 μg/ml peptide). Further, the “Chemokine induction Gro-α” value in assay [9] (20 μg/ml peptide) was determined as 15 pg/mL; in [9] (100 μg/ml peptide), 81 pg/mL.
